# According to the Kinase Knowledgebase extract (Sharma et al. 2016):
# What was measured:
# [1] = molecular target: MAPK14 (UniProt Q16539)
# [2] = molecular target: MAPK14 (UniProt Q16539); remark: listed apart in the source
# [3] = molecular target: MAPK14 (UniProt Q16539); remark: listed apart in the source
# Chain of MAPK14 (Q16539 whole entry, looked up): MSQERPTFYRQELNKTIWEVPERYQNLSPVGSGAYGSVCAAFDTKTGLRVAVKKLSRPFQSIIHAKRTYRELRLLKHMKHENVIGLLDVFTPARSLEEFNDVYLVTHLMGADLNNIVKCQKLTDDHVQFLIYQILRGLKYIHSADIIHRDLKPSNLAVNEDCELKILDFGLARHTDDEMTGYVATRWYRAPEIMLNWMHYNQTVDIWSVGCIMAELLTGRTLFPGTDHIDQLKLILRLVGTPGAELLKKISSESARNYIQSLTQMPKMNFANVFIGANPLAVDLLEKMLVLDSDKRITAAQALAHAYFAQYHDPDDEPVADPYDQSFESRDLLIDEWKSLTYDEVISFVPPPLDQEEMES
SMILES,IC50 [1],IC50 [2],IC50 [3]
Fc1ccc(Oc2nccc(-c3c(-c4ccc(F)cc4)ncn3CCCN3CCOCC3)n2)cc1,–,< 50 µM,< 50 µM
Fc1ccc(Oc2cc(-c3c(-c4ccc(F)cc4)ncn3C3CCNCC3)ccn2)cc1,< 50 µM,< 50 µM,< 50 µM
Fc1ccc(-c2ncn(C3CCNCC3)c2-c2ccnc(Oc3ccc(OCc4ccccc4)cc3)c2)cc1,< 50 µM,–,–
Fc1ccc(-c2ncn(C3CCNCC3)c2-c2ccnc(Sc3ccccc3)c2)cc1,< 50 µM,< 50 µM,–

# Second part, the molecule after the results:
IC50 [1],IC50 [2],IC50 [3],SMILES
< 50 µM,–,–,Fc1ccc(-c2ncn(C3CCNCC3)c2-c2ccnc(Oc3ccc(Cl)cc3)c2)cc1
< 50 µM,< 50 µM,< 50 µM,Fc1ccc(-c2ncn(C3CCNCC3)c2-c2ccnc(Oc3ccccc3)c2)cc1
< 50 µM,–,< 50 µM,Fc1ccc(-c2ncn(CCCN3CCOCC3)c2-c2ccnc(Oc3ccccc3)n2)cc1
< 50 µM,–,–,Cc1ccc(Oc2cc(-c3c(-c4ccc(F)cc4)ncn3C3CCNCC3)ccn2)cc1
< 50 µM,< 50 µM,< 50 µM,COc1ccc(Oc2cc(-c3c(-c4ccc(F)cc4)ncn3C3CCNCC3)ccn2)cc1
< 50 µM,< 50 µM,< 50 µM,Cn1nnnc1Sc1cc(-c2c(-c3ccc(F)cc3)ncn2C2CCNCC2)ccn1
